{"source": "paper PMC7934871", "about": "(JCI Insight, 2021)", "key": {"[1]": {"tested_on": "HCT116 xenograft tumors", "experiment": "HCT116 xenograft in NSG mice, peritumoral treatment", "assay_type": "in vivo, mouse", "conditions": "HCT116 s.c. in NSG mice, 1 mg/kg peritumoral every day, n = 4", "protocol": "Mouse care and experimental procedures were performed under pathogen-free conditions in accordance with established institutional guidance and approved IACUC protocols from Research Animal Care Committee of the City of Hope. For s.c. tumor challenge, 5 × 10^6 HCT116 cells were injected into NSG mice from The Jackson Laboratory or animal resource core facility at the City of Hope. After tumors reached an average size of 80~100 mm^3, mice were locally or intravenously treated with 1 mg/kg of PO- or PS-peptides (Anaspec) every day or every other day. Control animals were treated with the equal volume of HBSS (Invitrogen, Thermo Fisher Scientific). Tumor growth was measured by a digital caliper every other day. […] Lungs were then analyzed for immune responses by immunostaining followed by confocal imaging. […] Tumor growth was measured by a digital caliper every other day. […]\n(B) PS-acet.-STAT3 peptide downregulates STAT3 phosphorylation, assessed by Western blotting using tumor homogenates prepared from tumors shown in A.\n(C) mRNA levels for CASP9, BIRC5 and BCL2L1 in the same tumor tissues described above were assessed by qRT-PCR. […]\n(D) Treatments with PS-acet.-STAT3 peptide induced cell death, indicated by H&E staining (upper panel). […] Right panels represent quantification of Ki-67 protein levels and mean of vessel diameter (data include 5 fields of view per group). […]"}, "[2]": {"experiment": "Systemic toxicity in mice", "assay_type": "in vivo", "conditions": "1 mg/kg i.v. every other day for 3 weeks, n = 3", "protocol": "To evaluate the potential toxicity associated with systemic treatments of PS-peptide, PS-acet.-STAT3 peptide, PS-oligo, naive peptide, and PO- or PS-acet.-STAT3 peptide were given to the mice at 1 mg/kg through i.v. every other day for 3 weeks.\n(§1) Supplemental Figure 10 (related to Figure 3). The systemic toxicity of PS-acet.-peptide.\n(§2) The bodyweight (A), blood count (B) and organ morphology (H&E staining; spleen, kidney and liver) (C) of the mice (n=3) treated with HBSS (1), PS-oligo (2), naïve peptide (3), PO-peptide (4) or PS-peptide (5) every other day at 1 mg/kg (per treatment) for 3 weeks.\n(§3) Individual value of each mouse is shown as a dot on the graph. The red lines on each graph in (B) indicate the normal ranges. Blood count was done by a veterinary hematology analyzer. The images shown in (C) are the represented H&E section from three mice (n=3). Enlarged view are shown below as indicated. Scale bar, 50 µm.\n(§4) Aftabizadeh and Li et al., Figure S10"}, "[3]": {"tested_on": "B16 melanoma", "experiment": "B16 melanoma lung metastasis in C57BL/6 mice", "assay_type": "in vivo, mouse", "conditions": "B16 i.v. in C57BL/6 mice, 1 mg/kg i.v. every other day, gp100 staining, n = 5", "source_text": "Figure 7 PS-acet.-STAT3 peptide treatment efficiently reduces mouse melanoma lung metastasis. (A) Systemic PS-acet.-STAT3 peptide treatment reduces B16 lung nodules in syngeneic mouse model compared with control treatments. The B16 lung nodules in mice treated with the indicated STAT3 peptides and vehicle (n = 5) were visualized by IF staining of gp100 and quantified by confocal microscopy and Zen software. The levels of phosphorylation of STAT3 (p-STAT3), CD69, and Foxp3 in the tumor or tumor-infiltrating CD8^+ T or CD4^+ T cells were detected by IF staining followed by confocal microscopy in B16 metastatic lung nodules upon treatments with vehicle, PO- or PS-acet.-STAT3, PS-STAT3-K685R, or PS-unacet.-STAT3 peptides as indicated. Images are representative of 5 lungs per experimental group. Scale bars: 20 μm (CD69, CD8, CD4, p-STAT3, and Foxp3) and 100 μm (gp100). White arrows indicate the immune cells. Insets: original magnification, ×40. (B) The graphs show the quantification of gp100 and p-STAT3 expression levels (MFI) or the cell population (%) of CD69^+ in CD8^+ or p-STAT3^+ in CD4^+ or Foxp3^+ in CD4^+ (data represent 5 lungs per group, n = 5). SD is shown. One-way ANOVA; ****P < 0.001.\nMouse care and experimental procedures were performed under pathogen-free conditions in accordance with established institutional guidance and approved IACUC protocols from Research Animal Care Committee of the City of Hope. For s.c. tumor challenge, 5 × 10^6 HCT116 cells were injected into NSG mice from The Jackson Laboratory or animal resource core facility at the City of Hope. After tumors reached an average size of 80~100 mm^3, mice were locally or intravenously treated with 1 mg/kg of PO- or PS-peptides (Anaspec) every day or every other day. Control animals were treated with the equal volume of HBSS (Invitrogen, Thermo Fisher Scientific). Tumor growth was measured by a digital caliper every other day. To study the effects of the modified peptides at protein and gene levels, mice were euthanized 4–6 weeks after tumor injection. B16 melanoma lung metastasis was performed by injecting 0.5 × 10^6 B16 cells into bloodstream of C57BL/6 mice (The Jackson Laboratory). One day after tumor challenge, mice were treated intravenously (retro-orbitally) with 1 mg/kg of PO- or PS-acet.-STAT3, PS-unacet.-STAT3, or PS-STAT3-K685R peptides every other day until the endpoint as indicated. Control mice were treated with HBSS. Lungs were excised from the mice, and B16 nodules were visualized by gp100 staining. Lungs were then analyzed for immune responses by immunostaining followed by confocal imaging. For mouse PDAC model, 5 × 10^6 KPC mouse cells were mixed with Matrigel and subcutaneously injected into C57BL/6 mice (The Jackson Laboratory). After tumors reached an average size of 80~100 mm^3, mice were intravenously treated with 1 mg/kg of PO- or PS-Gp130, PS-oligo, PS-SC-MYC, PS-MYC. or combined PS-Gp130/PS-MYC (0.5 mg/kg, 0.5 mg/kg) (Anaspec) every other day for 18 days. Control animals were treated with the equal volume of HBSS (Invitrogen, Thermo Fisher Scientific). Tumor growth was measured by a digital caliper every other day. To study the effects of the modified peptides at protein and gene levels, mice were euthanized at the endpoint as indicated."}, "[4]": {"tested_on": "cancer cells", "experiment": "Confocal microscopy of peptide localisation", "assay_type": "cell-based", "conditions": "1 μM, 1 hour", "protocol": "(§5) Figure 8 PS-Gp130 and PS-MYC blocking peptides efficiently internalize into tumor cells to exert their functions. (A) For 1 hour 1 μM of PS-conjugated MYC (PS-MYC) and Gp130 (PS-Gp130) were incubated with cancer cells. PS-scramble MYC (PS-SC-MYC) was used as a control for PS-MYC. The peptide uptake was visualized by confocal microscopy and quantified by flow cytometry. Data are representative of 3 independent experiments (n = 3). (B) Upper panel: The binding of PS-Gp130 and STAT3 was examined by immunoprecipitation and Western blotting. PO-Gp130 was used as a control. For 4 hours prior to harvest, 1 μM of peptide was incubated with cells. Lower panel: PS-Gp130 inhibits IL-6–induced phosphorylation of STAT3 and p44/42 but not EGF-mediated signaling. The cells were preincubated with PS-Gp130 for 2 hours and then stimulated with 20 ng/mL of IL-6 or 30 ng/mL of EGF for 30 minutes before harvest and Western blotting. (C) Gene expression of STAT3 targets was examined by quantitative PCR after the treatment with 1 μM of PS-Gp130 with or without IL-6 stimulation as described above. Data shown are 3 independent experiments (n = 3); SD is shown. Unpaired Student’s t test; ***P < 0.005; **P < 0.01; *P < 0.05. (D) A total of 1 μM of PS-SC-MYC or PS-MYC was incubated with cells for 48 hours before the gene expression of MYC targets was examined by quantitative PCR. […]"}, "[5]": {"tested_on": "MYC target genes", "experiment": "Gene expression of MYC targets by quantitative PCR", "assay_type": "cell-based", "conditions": "1 μM, 48 hours, n = 3", "protocol": "as §5, with “Lower panel: PS-Gp130 inhibits IL-6–induced phosphorylation of STAT3 and p44/42 but not EGF-mediated signaling. The cells were preincubated with PS-Gp130 for 2 hours and then stimulated with 20 ng/mL of IL-6 or 30 ng/mL of EGF for 30 minutes before harvest and Western blotting.” left out, “Data shown are 3 independent experiments (n = 3); SD is shown. Unpaired Student’s t test; ***P < 0.005; **P < 0.01; *P < 0.05.” left out\nTotal RNA was extracted from cultured or tumor tissues using RNeasy kit (QIAGEN), according to manufacturer’s instruction. After cDNA synthesis using iScript cDNA Synthesis kit (Bio-Rad), samples were analyzed using pairs of primers specific for CASP9, CASP3, CASP8, BIRC5, BCL2L1, MYC, TP53, VEGF, IL1B, SERPIN3, FGA, CDK4, CCND2, CDKN2A, CDKN2B, GADD45A, mCD274, mMmp9, and mBirc5, as indicated. […]"}, "[6]": {"conditions": "mouse, in vivo", "protocol": "as §1, §2, §3, §4\nSupplemental Figure 12 (related to Figure 6).\n(A) Amino acid sequences of phosphorothioated (*, PS) DNA oligonucleotide-modified Gp130 (PS-Gp130), MYC (PS-MYC) and scrambled MYC (PS-SC-MYC) peptides. PS-Gp130 peptide spans 9 amino acids of Gp130 protein (amino acids […]). PS-MYC peptide contains 9 amino acids of Max protein (amino acids 77-85).\n(B and C) The bodyweight (B, n=5) and blood count (C, n=3) of the mice in each treatment group was measured at the end point. Individual value of each mouse is shown as a dot on the graph. The red lines on each graph indicate the normal ranges.\nAftabizadeh and Li et al., Figure S12"}}, "note": "No end group written: not given here."}
{"substance": "PDIPKEEAFGK685(Ac)YCRPESQEHPC-linker-TCCATGAGCTTCCTGATGCT [PO-acet.-STAT3 peptide]", "values": [{"measurement": "tumor growth", "setting": "[1]", "result": "not"}, {"measurement": "behavior, body weight, blood counts", "setting": "[2]", "result": "No behavior changes, body weight loss, or abnormal blood counts"}, {"measurement": "morphology and cell death in liver, spleen, kidney tissues (H&E)", "setting": "[2]", "result": "no significant morphology change or cell death"}, {"measurement": "metastatic lung nodules", "setting": "[3]", "result": "few antitumor effects"}]}
{"substance": "PS-MYC: PS-conjugated peptide corresponding to leucine zipper segment of MAX (amino acids 77–85) (KNHTHQQDI; also: phosphorothioate oligonucleotide conjugate; UniProt P61244 77-85, looked up, fragment)", "values": [{"measurement": "intracellular localisation / retention of peptide", "setting": "[4]", "result": "retained in the nucleus"}, {"measurement": "expression of MYC-mediated cell cycle and survival genes", "setting": "[5]", "result": "markedly downregulated"}, {"measurement": "expression of MYC-suppressed target genes", "setting": "[5]", "result": "upregulating"}, {"measurement": "blood count (anemia)", "setting": "[6]", "result": "minor anemia"}]}
